Measured values reported in patent publication US11884750B2, “Cationic cell penetrating peptides and the use thereof” (CELLTROY CO., LTD., priority 2021, dated 2024).
“Also recorded” adds a separate entry of the source.

How the values were obtained:
[1] = tested on: SH-SY5Y cells; assay: Cell penetration efficiency in human neuroblastoma cells, 4 μM, flow cytometry; assay type: cell-based; conditions: one hour; for cell permeability compared with TAT: 4 μM FITC-conjugated CPP, flow cytometry; for Score / Score/TAT: 4 μM FITC-conjugated peptide; for Score: intracellular fluorescence by flow cytometry; for Score/TAT: ratio to FITC-conjugated TAT
Method: The cell penetration efficiency of the cationic CPPs selected in Example 1 was evaluated in neuroblastoma. In further detail, SH-SYSY cells, which is a human neuroblastoma cell line, were seeded in 24-well plates to have a cell density of 1×10^7 cells/well, and cultured in 10% FBS-added DMEM under conditions of 37° C. and 5% CO2 for 24 hours. In addition, the cells were treated with 4 μM each of FITC-conjugated CPPs (C12, C14, C16, C31, C52, and C67), or FITC-conjugated TAT, and incubated for one hour. After the termination of the incubation, the cells were transferred to a sterile tube using 0.25% trypsin and centrifuged to remove the medium. Afterward, the cells were washed with 500 μL of D-PBS twice to completely remove the medium, and finally, resuspended in 400 μL of D-PBS and intracellular fluorescence was measured by flow cytometry (FACSCanto II).
(§1) To evaluate the cell penetration efficiency of the additionally selected cationic CPPs, an experiment was conducted using human epidermal cells or human neuroblastoma cells. In further detail, HaCAT cells, which is a human epidermal cell line, or SH-SYSY cells, which is a human neuroblastoma cell line, were seeded in 24-well plates to have a cell density of 1×10^7 cells/well and cultured in 10% FBS-added DMEM under conditions of 37° C. and 5% CO2 for 24 hours. In addition, the cells were treated with 4 μM each of FITC-conjugated peptides and FITC-conjugated TAT for one hour. After the completion of the culture, the cells were transferred to a sterile tube using 0.25% trypsin and centrifuged to remove the medium. Afterward, the cells were washed with 500 μL of D-PBS twice to completely remove the medium, and finally, resuspended in 400 μL of D-PBS and intracellular fluorescence was measured by flow cytometry (FACSCanto II).
(§2) Subsequently, to confirm whether the CPPs according to the present invention show excellent cell permeability into different types of cells/tissues, various tissue-derived cells were treated with biologically active molecule-conjugated CPPs to compare its delivery capacity with TAT. As in the previous examples, each cell was aliquoted in a plate at an appropriate density, and cultured in a 10% FBS-added medium under a condition of 37° C. and 5% CO2 for 24 hours. Subsequently, the cells were treated with 4 μM each of FITC-conjugated CPP or FITC-conjugated TAT and incubated for one hour. After the completion of the incubation, the cells were transferred to a sterile tube using 0.25% trypsin and centrifuged to remove the medium. Afterward, the cells were washed with 500 μL of D-PBS twice to completely remove the medium, and finally, resuspended in 400 μL of D-PBS and intracellular fluorescence was measured by flow cytometry (FACSCanto II).

[2] = tested on: HGB cell line; assay: Cell penetration efficiency in glioblastoma cells; assay type: cell-based, human; conditions: 4 μM FITC-conjugated CPP, one hour
Method: as §2

[3] = tested on: HDF cell line; assay: Cell penetration efficiency in skin cells (HDF); assay type: cell-based; conditions: 4 μM FITC-conjugated CPP, one hour
Method: as §2

[4] = tested on: A-427 cell line; assay: Cell penetration efficiency using lung cells; assay type: cell-based; conditions: A-427 lung cells, 4 μM FITC-conjugated CPP, one hour
Method: as §2

[5] = tested on: HepG2 cell line; assay: Cell penetration efficiency using liver cells; assay type: cell-based; conditions: 4 μM FITC-conjugated CPP, one hour
Method: as §2

[6] = tested on: HT1080 cell line; assay: Cell penetration efficiency using connective tissue (fibrosarcoma) cells; assay type: cell-based; conditions: 4 μM FITC-conjugated CPP, one hour
Method: as §2

[7] = tested on: HEK293T cell line; assay: Cell penetration efficiency using kidney cells; assay type: cell-based; conditions: 4 μM FITC-conjugated CPP, one hour
Method: as §2

[8] = tested on: HeLa cell line; assay: Cell penetration efficiency using cervical cancer cells; assay type: cell-based; conditions: 4 μM FITC-conjugated CPP, one hour
Method: as §2

[9] = tested on: HaCAT cells; assay: Cell penetration efficiency in human epidermal (skin) cells, 4 μM, flow cytometry; assay type: cell-based; conditions: 4 μM FITC-conjugated CPP, one hour
Method: The cell penetration efficiency of the cationic CPPs selected in Example 1 was evaluated using human epidermal cells. In further detail, HaCAT cells, which is a human epidermal cell line, were seeded in 24-well plates to have a cell density of 1×10^7 cells/well, and cultured in 10% FBS-added DMEM under conditions of 37° C. and 5% CO2 for 24 hours. Subsequently, the cells were treated 4 μM each of the FITC-conjugated CPP or FITC-conjugated TAT, and incubated for one hour. After the termination of the incubation, the cells were transferred to a sterile tube using 0.25% trypsin, and the medium was removed through centrifugation. Afterward, the cells were washed with 500 μL of D-PBS twice to completely remove the medium, and finally, resuspended in 400 μL of D-PBS and intracellular fluorescence was measured by flow cytometry (FACSCanto II).
as §1, §2

[10] = tested on: SNU-46 cell line; assay: Cell penetration efficiency using laryngeal cells; assay type: cell-based; conditions: SNU-46 laryngeal cells, 4 μM FITC-conjugated CPP, one hour
Method: as §2

[11] = tested on: monocytes; assay: Cell penetration efficiency using monocytes; assay type: cell-based; conditions: 4 μM FITC-conjugated CPP, one hour
Method: as §2

[12] = tested on: macrophages; assay: Cell penetration efficiency using macrophages; assay type: cell-based; conditions: macrophages differentiated from THP1 cells, 4 μM FITC-conjugated CPP, one hour
Method: as §2, with “II). Macrophages were used by inducing differentiation from THP1 cells. Specifically, the THP-1 cells were aliquoted on a cover glass laid on a 24-well plate to have a density of 6×10^4 cells/well, and after the addition of 100 ng/mL of phorbol 12-myristate 13-acetate (PMA), the cells were incubated for 48 hours to induce the differentiation into macrophages. After 48 hours, the cells were washed with Dulbecco's phosphate buffered saline (DPBS) to perform an experiment.” for “II).”

ALVLLRRRRRDRKP [C14]
cell permeability compared with TAT [1]: higher cell permeability
Score [1]: 1382
Score/TAT [1]: 2.663
cell permeability compared with TAT [2]: higher cell permeability
cell permeability compared with TAT [3]: higher cell permeability
cell permeability compared with TAT [4]: higher cell permeability
cell permeability compared with TAT [5]: higher cell permeability
cell permeability compared with TAT [6]: higher cell permeability
cell permeability compared with TAT [7]: higher cell permeability
cell permeability compared with TAT [8]: higher cell permeability
cell permeability compared with TAT [9]: increased cell permeability; also recorded: higher cell permeability
cell permeability compared with TAT [10]: higher cell permeability

KKRKKRRKKRKVDP [C67]
cell permeability compared with TAT [1]: higher cell permeability
Score [1]: 2328
Score/TAT [1]: 4.486
cell permeability compared with TAT [2]: higher cell permeability
cell permeability compared with TAT [3]: higher cell permeability
cell permeability compared with TAT [4]: higher cell permeability
cell permeability compared with TAT [5]: higher cell permeability
cell permeability compared with TAT [6]: higher cell permeability
cell permeability compared with TAT [7]: higher cell permeability
cell permeability compared with TAT [8]: higher cell permeability
cell permeability compared with TAT [9]: increased cell permeability
cell permeability compared with TAT [10]: higher cell permeability

KRKLKVRRKLREPR [C115]
cell permeability compared with TAT [1]: higher cell permeability
Score [1]: 563
Score/TAT [1]: 1.085
cell permeability compared with TAT [11]: higher cell permeability

KRRKLRIKRRIRVP [C208]
cell permeability compared with TAT [1]: higher cell permeability
Score [1]: 1326
Score/TAT [1]: 2.555
cell permeability compared with TAT [3]: higher cell permeability
cell permeability compared with TAT [6]: higher cell permeability
cell permeability compared with TAT [8]: higher cell permeability
cell permeability compared with TAT [9]: higher cell permeability
cell permeability compared with TAT [10]: higher cell permeability
cell permeability compared with TAT [11]: higher cell permeability

LMPSKIRRRKKRKK [C85]
cell permeability compared with TAT [12]: higher cell permeability
cell permeability compared with TAT [1]: higher cell permeability
Score [1]: 798
Score/TAT [1]: 1.538
cell permeability compared with TAT [3]: higher cell permeability
cell permeability compared with TAT [6]: higher cell permeability
cell permeability compared with TAT [9]: higher cell permeability
cell permeability compared with TAT [10]: higher cell permeability
cell permeability compared with TAT [11]: higher cell permeability

MKRLLKVVRRRRRP [C201]
cell permeability compared with TAT [12]: higher cell permeability
cell permeability compared with TAT [1]: higher cell permeability
Score [1]: 802
Score/TAT [1]: 1.545
cell permeability compared with TAT [2]: higher cell permeability
cell permeability compared with TAT [8]: higher cell permeability
cell permeability compared with TAT [10]: higher cell permeability

RLRALVRRKQRARP [C82]
cell permeability compared with TAT [1]: higher cell permeability
Score [1]: 628
Score/TAT [1]: 1.210
cell permeability compared with TAT [4]: higher cell permeability
cell permeability compared with TAT [6]: higher cell permeability
cell permeability compared with TAT [9]: higher cell permeability
cell permeability compared with TAT [11]: higher cell permeability

RPALKQRRWRRKKK [C117]
cell permeability compared with TAT [1]: higher cell permeability
Score [1]: 936
Score/TAT [1]: 1.803
cell permeability compared with TAT [2]: higher cell permeability
cell permeability compared with TAT [3]: higher cell permeability
cell permeability compared with TAT [4]: higher cell permeability
cell permeability compared with TAT [6]: higher cell permeability
cell permeability compared with TAT [8]: higher cell permeability
cell permeability compared with TAT [9]: higher cell permeability
cell permeability compared with TAT [10]: higher cell permeability
cell permeability compared with TAT [11]: higher cell permeability

RPIRKLLRQARQRR [C131]
cell permeability compared with TAT [1]: higher cell permeability
Score [1]: 790
Score/TAT [1]: 1.522
cell permeability compared with TAT [2]: higher cell permeability
cell permeability compared with TAT [3]: higher cell permeability
cell permeability compared with TAT [8]: higher cell permeability
cell permeability compared with TAT [11]: higher cell permeability

RPLVRRRLRRAVRR [C226]
cell permeability compared with TAT [12]: higher cell permeability
Score [1]: 474
Score/TAT [1]: 0.913
cell permeability compared with TAT [8]: higher cell permeability
cell permeability compared with TAT [9]: higher cell permeability
cell permeability compared with TAT [10]: higher cell permeability
cell permeability compared with TAT [11]: higher cell permeability

RRALRRRAQRRGAP [C181]
cell permeability compared with TAT [1]: higher cell permeability
Score [1]: 682
Score/TAT [1]: 1.314
cell permeability compared with TAT [2]: higher cell permeability
cell permeability compared with TAT [3]: higher cell permeability
cell permeability compared with TAT [8]: higher cell permeability
cell permeability compared with TAT [11]: higher cell permeability

RTRLLRRLRALKPR [C223]
Score [1]: 408
Score/TAT [1]: 0.786
cell permeability compared with TAT [8]: higher cell permeability
cell permeability compared with TAT [11]: higher cell permeability

YRPRRKKATKKLKR [C284]
cell permeability compared with TAT [12]: higher cell permeability
cell permeability compared with TAT [1]: higher cell permeability
Score [1]: 532
Score/TAT [1]: 1.025
cell permeability compared with TAT [2]: higher cell permeability
cell permeability compared with TAT [7]: higher cell permeability
cell permeability compared with TAT [8]: higher cell permeability

YRPRRKKITKKLKR [C283]
cell permeability compared with TAT [12]: higher cell permeability
Score [1]: 514
Score/TAT [1]: 0.990
cell permeability compared with TAT [2]: higher cell permeability
cell permeability compared with TAT [6]: higher cell permeability
cell permeability compared with TAT [7]: higher cell permeability
cell permeability compared with TAT [8]: higher cell permeability
cell permeability compared with TAT [10]: higher cell permeability
cell permeability compared with TAT [11]: higher cell permeability
